Experimental findings from patent US20120214824A1, “PROTEOSTASIS REGULATORS” (priority 2010, published 2012) are described below.

Experiment [1] has as its system firefly luciferase. The experiment in a line: Luciferase folding assay (Lucif.). The experiment is classed as cell-based, human. To be noted: HeLa-luciferase cells; for Lucif. (luciferase activity induction): Table 1a; for Lucif (luciferase activity induction): Table 2a. An excerpt:
Firefly luciferase is a commonly used bioluminescent reporter. This monomeric enzyme of 61 kDa catalyzes a two-step oxidation reaction to yield light, usually in the green to yellow region, typically 550-570 nm. The first step of this reaction is activation of the luciferyl carboxylate by ATP to yield a reactive mixed anhydride. In the second step, the activated intermediate reacts with oxygen to create a transient dioxetane that breaks down to the oxidized products, oxyluciferin and CO2. Upon mixing with substrates, firefly luciferase produces an initial burst of light that decays over about 15 seconds to a low level of sustained luminescence. This kinetic profile reflects the slow release of the enzymatic product, thus limiting catalytic turnover after the initial reaction.
This mammalian cell based assay that used firefly luciferase as a sensor was used to screen for compounds that may modulate the cellular folding environment.
HeLa luciferase cell lines: Frozen bullets containing the cells were thawed briefly at 37° C. then placed into a T-150 flask containing 30-35 ml DMEM medium+Penicillin/Strep (1% final+10% FBS (final)+Geneticin @ 200-500 ug/ml. Cell cultures were maintained at 37° C. with 5% CO2 and water in the bottom of the incubator to keep cells healthy. Upon expanding cell line, luciferase measurements were taken to make sure that activity levels were between 2000-5000 (RLU) when plated at 15K/well in a 96-well format (Bright-Glo Promega) before compound treatment.
Compound treatment of HeLa-luciferase cells: HeLa-luciferase WT cells were plated in a 96-well format at 15K/well the day prior to performing compound treatment and/or luciferase assay. […] Final volume used per well was 90 uL. Flat bottom, white polystyrene plates were used for plating the cells.
For compound treatment, stocks of compounds were made up at 10 mM concentration in DMSO. Stocks compounds were diluted by 100× fold in the same media used for culturing the cells—this leads to a 0.1 mM (or 100 uM) concentration. After diluting the compound in media, 10 uL of the 100 uM solution was placed into each well of cells (90 uL); making the final concentration of the compound 10 uM. If serial dilutions of compounds were tested, serial dilutions of compounds were first made in DMSO accordingly, and further diluted in the media, prior to adding to cells. This procedure allowed for constant final levels of DMSO concentrations, regardless of initial compound concentration.
Performing luciferase activity assay: Bright-Glo Luciferase Assay Reagent (Promega cat #: E2610, E2620, E2650) was thawed out at RT in a water bath. Alternatively, Bright-Glo Luciferase assay buffer (prior to mixing with substrate) was stored overnight at RT, prior to using.
Following compound treatment, plates were removed from 37° C. and allowed to acclimate to RT for 5-10 min. Bright-Glo reagent was added to each cell-containing well in a 1:1 ratio (e.g., 100 uL of Bright Glo for each 100 uL cells).
Plates were placed on a plate shaker for 5 min, removing any air bubbles on the surface (which may interfere with proper reads), and then read on an EnVision 2104 Multilabel reader, Emission filter Luminescence 700, barcode 212, WL 400-700 nm.
Data for representative compounds in this assay are shown under the heading “Lucif.”

Experiment [2] relates to DDIT3. The experiment in a line: Multigene assay (QuantiGene Plex 2.0), mouse MEF cell line. The experiment is classed as cell-based. The settings on record: 6 hours post-compound treatment. As for the experimental part: (§1) This assay used the QuantiGene Plex 2.0 Reagent System from Affymetrix. This assay combines the use of bDNA (branch DNA) and xMAP magnetic capture beads from Luminex Technologies to quantitatively and simultaneously detect multiple mRNA transcripts per well. The overall procedure was performed according to the QuantiGene Plex 2.0 Reagent System instruction manual from Affymetrix.
(§2) Cells were seeded at a density of 12,000 cells/well in 96-well plates with an overnight incubation at 37° C., 5% CO2. Cells were treated with serially diluted compounds in a 7-point dose dependent manner. Cell lysis with 50% [v/v] Panomics Lysis Mixture (Lysis Mixture+10 μl/ml 25 Proteinase K) was performed 6 hours post-compound treatment. Lysed cells were heated at 50° C. to ensure appropriate lysing and the plates were then frozen at −80° C. Cell lysates, thawed at room temperature on the day of the assay, were pooled with mouse 8-gene multiplex probe sets and with 8 different sets of magnetic capture beads (Luminex Technology, Austin, Tex.) in a 100 μl/well volume. Biomek FX was used at every liquid transfer step. The eight plates containing lysate-probe-bead mixtures were incubated at 54° C.±1° C. on a shaking platform for an overnight incubation in the dark (18-20 hours). The following day the hybridization plates were compressed by transferring the hybridized lysates into a single magnetic capture plate. The plate was kept on a magnet to hold the beads and then washed with Panomics Wash Buffer 2.0 on a BioTek ELx405 select plate washer to remove any unbound sample. This step was followed by serial hybridizations and washings of the bDNA pre-amplifier (1 hour, 50° C.), bDNA amplifier (1 hour, 50° C.), label probe (1 hour, 50° C.), and streptavidin-phycoerythrin (SAPE, 30 minutes, room temperature). (Zhang, A. et al. Small interfering RNA and gene expression analysis using a multiplex branched DNA assay without RNA purification. J Biomol Screen 10, 549-56 (2005)). The plate was then washed with SAPE wash buffer to remove unbound SAPE and each well was analyzed with the Luminex FlexMap3D (Luminex, Austin, Tex.). SAPE fluorescence measured from each bead was proportional to the number of mRNA transcripts captured by the beads (Zheng, Z., Luo, Y. & McMaster, G. K. Sensitive and quantitative measurement of gene expression directly from a small amount of whole blood. Clin Chem 52, 1294-302 (2006)). Fold changes in gene expression were obtained for each gene per well by normalizing the raw data first to the DMSO control and then to a housekeeping gene (TBP-TATA binding protein or Tub1-alpha-tubulin).

Experiment [3] concerns HSPA1a. Described as above. The experiment is classed as cell-based. The settings on record: 6 hours post-compound treatment. As for the experimental part: as §1, §2
The subject of experiment [4] is TUB1. The description is as above. The experiment is classed as cell-based. The settings on record: 6 hours post-compound treatment. How it is done: as §1, §2
Experiment [5] has as its system BCL2. Described as above. The experiment is classed as cell-based. To be noted: 6 hours post-compound treatment. How it is done: as §1, §2
Experiment [6] has as its system GCLM. The experiment is described as above. The experiment is classed as cell-based. The settings on record: 6 hours post-compound treatment. As for the experimental part:
as §1, §2

For experiment [7], the system named is HMOX. The description is as above. To be noted: 6 hours post-compound treatment. The experiment is classed as cell-based. As for the experimental part:
as §1, §2

Experiment [8] concerns HspA5. The description is as above. The experiment is classed as cell-based. To be noted: 6 hours post-compound treatment. How it is done: as §1, §2

Molecules are shown by their SMILES.

For the compound `CC1=C(C#N)C(c2ccc(F)cc2)C2=C(CC(c3cccs3)CC2=O)N1` (stereo not drawn) [drawing 26/Me/CN/p-F], the “Lucif. (luciferase activity induction)” value in experiment [1] was “+ (+ indicates a induction of greater than 2 fold)”. In experiment [2] (Table 1a), the DDIT3 gene induction result is reported as “− (− Indicates less than 2 fold induction)”. The HSPA1a gene induction result in experiment [3] (Table 1b) is on record as “− (− Indicates less than 2 fold induction)”. In addition, the TUB1 gene induction result in experiment [4] (Table 1a) is reported as “− (− Indicates less than 2 fold induction)”. Moreover, the BCL2 gene induction result in experiment [5] (Table 1b) is reported as “− (− Indicates less than 2 fold induction)”. Besides, in experiment [6] (Table 1a), the GCLM gene induction result is reported as “− (− Indicates less than 2 fold induction)”. The HMOX gene induction result in experiment [7] (Table 1b) was “− (− Indicates less than 2 fold induction)”. Also, in experiment [8] (Table 1b), the HspA5 gene induction result is reported as “− (− Indicates less than 2 fold induction)”.

Take `CC1=C(C(=O)OCC(C)C)C(c2ccc(F)cc2)C2=C(CC(c3cccs3)CC2=O)N1` (stereo not drawn) [drawing 26/Me/COOCH2CHMe2/p-F #1]: in experiment [1], the “Lucif. (luciferase activity induction)” value is listed as “+ (+ indicates a induction of greater than 2 fold)”.

Regarding `CC1=C(C(=O)OCC(C)C)C(c2ccc(F)cc2)C2=C(CC(c3cccs3)CC2=O)N1` (stereo not drawn) [drawing 26/Me/COOCH2CHMe2/p-F #2], in experiment [1], the “Lucif. (luciferase activity induction)” value was “+ (+ indicates a induction of greater than 2 fold)”. The DDIT3 gene induction entry in experiment [2] (Table 1a) is “+ (+ indicates a induction of greater than 2 fold)”. In experiment [3] (Table 1b), the HSPA1a gene induction entry was “− (− Indicates less than 2 fold induction)”. In addition, in experiment [4] (Table 1a), the TUB1 gene induction entry is given as “− (− Indicates less than 2 fold induction)”. Also, in experiment [5] (Table 1b), the BCL2 gene induction result is reported as “− (− Indicates less than 2 fold induction)”. Moreover, the GCLM gene induction entry in experiment [6] (Table 1a) is listed as “− (− Indicates less than 2 fold induction)”. Moreover, the HMOX gene induction entry in experiment [7] (Table 1b) is listed as “− (− Indicates less than 2 fold induction)”. The HspA5 gene induction result in experiment [8] (Table 1b) is “− (− Indicates less than 2 fold induction)”.

Consider `CC1=C(C#N)C(c2ccccc2OC(C)C)C2=C(CC(c3ccccc3)CC2=O)N1` (stereo not drawn) [drawing 27/Me/CN/o-OCHMe2/H], for which, in experiment [1], the “Lucif (luciferase activity induction)” value was “+ (+ indicates a induction of greater than 2 fold)”. Also, the DDIT3 gene induction result in experiment [2] (Table 2a) is reported as “− (− Indicates less than 2 fold induction)”. Besides, the HSPA1a gene induction result in experiment [3] (Table 2b) was “− (− Indicates less than 2 fold induction)”. Also, the TUB1 gene induction entry in experiment [4] (Table 2a) is “− (− Indicates less than 2 fold induction)”. The BCL2 gene induction entry in experiment [5] (Table 2b) is listed as “− (− Indicates less than 2 fold induction)”. Also, the GCLM gene induction entry in experiment [6] (Table 2a) is reported as “− (− Indicates less than 2 fold induction)”. Also, in experiment [7] (Table 2b), the HMOX gene induction entry was “− (− Indicates less than 2 fold induction)”. Further, the HspA5 gene induction result in experiment [8] (Table 2b) was “− (− Indicates less than 2 fold induction)”.

In the case of `CC1=C(C#N)C(c2ccc(F)cc2)C2=C(CC(c3ccccc3)CC2=O)N1` (stereo not drawn) [drawing 27/Me/CN/p-F/H], in experiment [1], the “Lucif (luciferase activity induction)” value is “+ (+ indicates a induction of greater than 2 fold)”. In experiment [2] (Table 2a), the DDIT3 gene induction result is recorded as “+ (+ indicates a induction of greater than 2 fold)”. Moreover, the HSPA1a gene induction entry in experiment [3] (Table 2b) is reported as “− (− Indicates less than 2 fold induction)”. Besides, the TUB1 gene induction result in experiment [4] (Table 2a) was “− (− Indicates less than 2 fold induction)”. Also, the BCL2 gene induction result in experiment [5] (Table 2b) is “− (− Indicates less than 2 fold induction)”. Besides, the GCLM gene induction entry in experiment [6] (Table 2a) is reported as “− (− Indicates less than 2 fold induction)”. The HMOX gene induction result in experiment [7] (Table 2b) is “+ (+ indicates a induction of greater than 2 fold)”. In addition, the HspA5 gene induction result in experiment [8] (Table 2b) was “− (− Indicates less than 2 fold induction)”.

As for `CC(C)(C)c1n[nH]c2c1C(c1cccs1)C(C#N)=C(N)O2` (stereo not drawn) [drawing 29/CMe3/H/H/S], the DDIT3 gene induction entry in experiment [2] (Table 4a) is listed as “− (− Indicates less than 2 fold induction)”. For the same compound, the HSPA1a gene induction result in experiment [3] (Table 4b) is “− (− Indicates less than 2 fold induction)”. Besides, in experiment [4] (Table 4a), the TUB1 gene induction result is “− (− Indicates less than 2 fold induction)”. For the same compound, the BCL2 gene induction result in experiment [5] (Table 4b) is reported as “− (− Indicates less than 2 fold induction)”. In addition, in experiment [6] (Table 4a), the GCLM gene induction entry is “+ (+ indicates a induction of greater than 2 fold)”. In addition, in experiment [7] (Table 4b), the HMOX gene induction entry was “+ (+ indicates a induction of greater than 2 fold)”. In addition, the HspA5 gene induction entry in experiment [8] (Table 4b) was “− (− Indicates less than 2 fold induction)”.

`Cc1ccsc1C1C(C#N)=C(N)Oc2[nH]nc(C(C)(C)C)c21` (stereo not drawn) [drawing 29/CMe3/H/Me/S]: the DDIT3 gene induction result in experiment [2] (Table 4a) is “− (− Indicates less than 2 fold induction)”. For the same compound, in experiment [3] (Table 4b), the HSPA1a gene induction entry is given as “− (− Indicates less than 2 fold induction)”. For the same compound, the TUB1 gene induction entry in experiment [4] (Table 4a) is listed as “− (− Indicates less than 2 fold induction)”. The BCL2 gene induction result in experiment [5] (Table 4b) is “− (− Indicates less than 2 fold induction)”. In experiment [6] (Table 4a), the GCLM gene induction result is “+ (+ indicates a induction of greater than 2 fold)”. Also, in experiment [7] (Table 4b), the HMOX gene induction result is reported as “+ (+ indicates a induction of greater than 2 fold)”. Also, in experiment [8] (Table 4b), the HspA5 gene induction result was “− (− Indicates less than 2 fold induction)”.

`Cc1n[nH]c2c1C(c1cccs1)C(C#N)=C(N)O2` (stereo not drawn) [drawing 29/Me/H/H/S]: the DDIT3 gene induction entry in experiment [2] (Table 4a) is listed as “− (− Indicates less than 2 fold induction)”. In addition, in experiment [3] (Table 4b), the HSPA1a gene induction entry was “− (− Indicates less than 2 fold induction)”. Besides, in experiment [4] (Table 4a), the TUB1 gene induction entry is listed as “− (− Indicates less than 2 fold induction)”. For the same compound, the BCL2 gene induction entry in experiment [5] (Table 4b) is given as “− (− Indicates less than 2 fold induction)”. The GCLM gene induction entry in experiment [6] (Table 4a) is listed as “+ (+ indicates a induction of greater than 2 fold)”. Also, the HMOX gene induction result in experiment [7] (Table 4b) is “+ (+ indicates a induction of greater than 2 fold)”. The HspA5 gene induction entry in experiment [8] (Table 4b) is given as “− (− Indicates less than 2 fold induction)”.
